Biological target: T1, Phospholipase A2 alpha (Crotalus adamanteus, UniProt P00623)
T1 sequence (P00623 whole entry): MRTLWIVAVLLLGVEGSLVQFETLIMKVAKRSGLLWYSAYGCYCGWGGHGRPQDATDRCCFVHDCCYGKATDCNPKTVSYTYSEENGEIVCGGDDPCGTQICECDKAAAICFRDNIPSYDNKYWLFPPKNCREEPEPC
Assay: Inhibition of Crotalus adamanteus venom phospholipase A2 by fluorometric assay

SMILES	IC50
CC1=C(CC/C(C)=C/CCC2=CC[C@H](C3=CC(=O)O[C@H]3O)O[C@H]2O)C(C)(C)CCC1 [MANOALIDE]	0.4 µM
O=C(c1c[nH]c2ccc(O)cc12)c1nccc2c1[nH]c1ccc(O)cc12 [HYRTIOSULAWESINE]	14 µM

Source: ChEMBL document CHEMBL1158119, “Hyrtiazepine, an azepino-indole-type alkaloid from the Red Sea marine sponge Hyrtios erectus” (J Nat Prod, 2006)
